Test results from patent US9266871B2, “Trifluoromethyl-substituted fused pyrimidines and their use” (BAYER PHARMA AKTIENGESELLSCHAFT, priority 2013, dated 2016).

Tested on: spontaneously hypertensive rats (SHR Okamoto)
Assay: Radiotelemetric measurement of blood pressure on conscious spontaneously hypertensive rats
Assay type: in vivo, rat
Source text: B-3. Radiotelemetric Measurement of Blood Pressure on Conscious Spontaneously Hypertensive Rats
A commercially available telemetry system from DATA SCIENCES INTERNATIONAL DSI, USA, is employed for the blood pressure measurement on conscious rats described below.
The system consists of 3 main components: • implantable transmitters (Physiotel® telemetry transmitter) • receivers (Physiotel® receiver) which are linked via a multiplexer (DSI Data Exchange Matrix) to a • data acquisition computer.
The telemetry system makes it possible to continuously record blood pressure, heart rate and body motion of conscious animals in their usual habitat.
The investigations are carried out on adult female spontaneously hypertensive rats (SHR Okamoto) with a body weight of >200 g. SHR/NCrl from the Okamoto Kyoto School of Medicine, 1963 were a cross of male Wistar Kyoto rats with highly elevated blood pressure and female rats having a slightly elevated blood pressure and at F13 handed over to the U.S. National Institutes of Health.
Unless indicated otherwise, the substances to be investigated are administered orally by gavage in each case to a group of animals (n=6). The test substances are dissolved in suitable solvent mixtures, or suspended in 0.5% strength Tylose, appropriate for an administration volume of 2 ml/kg of body weight.
In the standard procedure, the following are measured for 10-second periods in each case: • systolic blood pressure (SBP) • diastolic blood pressure (DBP) • mean arterial pressure (MAP) • heart rate (HR) • activity (ACT).
The acquisition of measurements is repeated under computer control at 5-minute intervals. The source data obtained as absolute value are corrected in the diagram with the currently measured barometric pressure (Ambient Pressure Reference Monitor; APR-1) and stored as individual data. Further technical details are given in the extensive documentation from the manufacturing company (DSI).
Unless indicated otherwise, the test substances are administered at 9.00 am on the day of the experiment. Following the administration, the parameters described above are measured over 24 hours.
After the end of the experiment, the acquired individual data are sorted using the analysis software (DATAQUEST™ A.R.T.™ ANALYSIS). The blank value is assumed to be the time 2 hours before administration, and so the selected data set encompasses the period from 7.00 am on the day of the experiment to 9.00 am the following day.
The data are smoothed over a presettable time by determination of the average (30-minute average) and transferred as a text file to a storage medium. The measured values presorted and compressed in this way are transferred into Excel templates and tabulated. For each day of the experiment, the data obtained are stored in a dedicated file bearing the number of the experiment. Results and test protocols are filed sorted by numbers.

## C[C@@]1(C(F)(F)F)C(=O)Nc2nc(-c3nn(Cc4ncccc4F)c4ncc(F)cc34)nc(NCCC(F)(F)F)c21 (single isomer, unassigned) [Example 1-1]
0.03 mg/kg, 0 hours after substance administration
  mean blood pressure: 148.8 mmHg
0.03 mg/kg, 1 hours after substance administration
  mean blood pressure: 133.5 mmHg
0.03 mg/kg, 2 hours after substance administration
  mean blood pressure: 127.3 mmHg
0.03 mg/kg, 3 hours after substance administration
  mean blood pressure: 128.8 mmHg
0.03 mg/kg, 4 hours after substance administration
  mean blood pressure: 132.3 mmHg
0.03 mg/kg, 5 hours after substance administration
  mean blood pressure: 126.0 mmHg
0.03 mg/kg, 6 hours after substance administration
  mean blood pressure: 124.5 mmHg
0.03 mg/kg, 7 hours after substance administration
  mean blood pressure: 138.8 mmHg
0.03 mg/kg, 8 hours after substance administration
  mean blood pressure: 143.8 mmHg
0.03 mg/kg, 9 hours after substance administration
  mean blood pressure: 136.5 mmHg
0.03 mg/kg, 10 hours after substance administration
  mean blood pressure: 143.8 mmHg
0.03 mg/kg, 11 hours after substance administration
  mean blood pressure: 141.7 mmHg
0.03 mg/kg, 12 hours after substance administration
  mean blood pressure: 141.7 mmHg
0.03 mg/kg, 13 hours after substance administration
  mean blood pressure: 150.5 mmHg
0.03 mg/kg, 14 hours after substance administration
  mean blood pressure: 150.8 mmHg
0.03 mg/kg, 15 hours after substance administration
  mean blood pressure: 153.8 mmHg
0.03 mg/kg, 16 hours after substance administration
  mean blood pressure: 145.7 mmHg
0.03 mg/kg, 17 hours after substance administration
  mean blood pressure: 155.3 mmHg
0.03 mg/kg, 18 hours after substance administration
  mean blood pressure: 151.2 mmHg
0.03 mg/kg, 19 hours after substance administration
  mean blood pressure: 146.3 mmHg
0.03 mg/kg, 20 hours after substance administration
  mean blood pressure: 140.2 mmHg
0.03 mg/kg, 21 hours after substance administration
  mean blood pressure: 142.2 mmHg
0.03 mg/kg, 22 hours after substance administration
  mean blood pressure: 142.8 mmHg
0.03 mg/kg, 23 hours after substance administration
  mean blood pressure: 143.0 mmHg
0.03 mg/kg, 24 hours after substance administration
  mean blood pressure: 143.2 mmHg
0.3 mg/kg p.o., 0 hours after substance administration
  mean blood pressure: 138.7 mmHg
0.3 mg/kg p.o., 1 hours after substance administration
  mean blood pressure: 116.3 mmHg
0.3 mg/kg p.o., 2 hours after substance administration
  mean blood pressure: 106.8 mmHg
0.3 mg/kg p.o., 3 hours after substance administration
  mean blood pressure: 107.2 mmHg
0.3 mg/kg p.o., 4 hours after substance administration
  mean blood pressure: 105.5 mmHg
0.3 mg/kg p.o., 5 hours after substance administration
  mean blood pressure: 106.2 mmHg
0.3 mg/kg p.o., 6 hours after substance administration
  mean blood pressure: 106.8 mmHg
0.3 mg/kg p.o., 7 hours after substance administration
  mean blood pressure: 101.7 mmHg
0.3 mg/kg p.o., 8 hours after substance administration
  mean blood pressure: 111.3 mmHg
0.3 mg/kg p.o., 9 hours after substance administration
  mean blood pressure: 109.0 mmHg
0.3 mg/kg p.o., 10 hours after substance administration
  mean blood pressure: 113.3 mmHg
0.3 mg/kg p.o., 11 hours after substance administration
  mean blood pressure: 114.8 mmHg
0.3 mg/kg p.o., 12 hours after substance administration
  mean blood pressure: 112.0 mmHg
0.3 mg/kg p.o., 13 hours after substance administration
  mean blood pressure: 117.2 mmHg
0.3 mg/kg p.o., 14 hours after substance administration
  mean blood pressure: 115.7 mmHg
0.3 mg/kg p.o., 15 hours after substance administration
  mean blood pressure: 117.8 mmHg
0.3 mg/kg p.o., 16 hours after substance administration
  mean blood pressure: 111.5 mmHg
0.3 mg/kg p.o., 17 hours after substance administration
  mean blood pressure: 121.7 mmHg
0.3 mg/kg p.o., 18 hours after substance administration
  mean blood pressure: 132.3 mmHg
0.3 mg/kg p.o., 19 hours after substance administration
  mean blood pressure: 117.0 mmHg
0.3 mg/kg p.o., 20 hours after substance administration
  mean blood pressure: 110.7 mmHg
0.3 mg/kg p.o., 21 hours after substance administration
  mean blood pressure: 124.0 mmHg
0.3 mg/kg p.o., 22 hours after substance administration
  mean blood pressure: 125.5 mmHg
0.3 mg/kg p.o., 23 hours after substance administration
  mean blood pressure: 139.0 mmHg
0.3 mg/kg p.o., 24 hours after substance administration
  mean blood pressure: 150.5 mmHg
